These results are taken from patent US20240239854A1, “ANTIMICROBIAL PEPTIDES AND MODIFICATIONS THEREOF” (Donald Danforth Plant Science Center, priority 2022, published 2024).

In test [1] the test system is Botrytis cinerea T-4.
Test [2] relates to Zymoseptoria tritici IPO323. Type of test: cell-based.
Test [3] concerns Botrytis cinerea T4. The class given is cell-based.
In test [4] the test system is Fusarium graminearum PH-1. Type of test: cell-based. The settings on record: MIC Day 1; 96-well plate, resazurin cell viability. Background: The colour change of resazurin is a common sign of viable cells or microbes.

Converted amounts (≈) assume the structure as drawn. Positions of bridges follow the written chain, without caps; N, C: chain ends. Residues, ends and D or L forms follow the SMILES beside them.

As to `CC[C@H](C)[C@@H]1NC(=O)[C@H](CCCNC(=N)N)NC(=O)[C@@H](NC(=O)[C@H](CCCNC(=N)N)NC(=O)CNC(=O)[C@@H](N)CO)CSSC[C@@H](C(N)=O)NC(=O)[C@H](CC(N)=O)NC(=O)[C@H](CCCCN)NC(=O)[C@H]([C@@H](C)O)NC(=O)[C@H](Cc2ccccc2)NC(=O)[C@H](Cc2ccc(O)cc2)NC(=O)[C@H](Cc2c[nH]c3ccccc23)NC(=O)[C@H](CCCNC(=N)N)NC(=O)[C@H](Cc2ccccc2)NC(=O)[C@H](CC(C)C)NC1=O` [GMA1C_V3] (H-SGRCRILFRWYFTKNC-NH2; disulfide 4-16; N-terminus assumed), in test [1] (Table 18, SFM), the “MIC (μM) SFM” value came to 1.5 µM (≈ 3.07 µg/mL). For the same molecule, in test [1] (Table 18, SFM + 2 mM CaCl2), the “MIC (μM) (SFM + 2 mM CaCl2)” value stood at 6 µM. Also, the “MIC (μM) (SFM + 100 mM KCl)” value in test [1] (Table 18, SFM + 100 mM KCl) is more than 12 µM. Besides, in test [1] (Table 18, SFM + 100 mM NaCl), the “MIC (μM) (SFM + 100 mM NaCl)” value was found to be 3 µM.
With “PD108.1.1: Fragaria x anannasa wild-type defensin SEQ ID NO: 653 with N-terminal alanine, expressed in Pichia pastoris (KTCESPSAKFEGPCIMGSNCALTCQKEGHDGGFCRDFWLPKCFCTKPC; N-terminal alanine added; Fragaria X ananassa)”, in test [2], the “Z. tritici IPO323 MIC Day 1” value was more than 12 µM, the “Z. tritici IPO323 MIC Day 7” value was more than 12 µM and the “Z. tritici IPO323 MIC Day 14” value is more than 12 µM. Also, the “B. cinerea T4 MIC Day1” value in test [3] was more than 12 µM. Besides, in test [4], the “F. graminearum PH-1 MIC Day1” value was more than 12 µM.
As for “PD113.1.1: Gossypium hirsutum wild-type defensin SEQ ID NO: 674 with N-terminal alanine, expressed in Pichia pastoris (GPTIVGGRKCKSPSKKFNGMCMNHVNCATVCQTESHEDGKCEGFYRRCICIKPCF; N-terminal alanine added; listed as Gossypium hirsutum)”, in test [2], the “Z. tritici IPO323 MIC Day 1” value was found to be 4 µM, the “Z. tritici IPO323 MIC Day 7” value was determined as 12 µM and the “Z. tritici IPO323 MIC Day 14” value was more than 12 µM. Besides, the “B. cinerea T4 MIC Day1” value in test [3] was 6 µM. The “F. graminearum PH-1 MIC Day1” value in test [4] was 6 µM.
For “PD115.1.1: Lupinus albus wild-type defensin SEQ ID NO: 683 with N-terminal alanine, expressed in Pichia pastoris (NNCKYESNKFHGVCLSDTNCESVCQTEGFPFGKCDGVLPRTCVCKKPC; N-terminal alanine added; listed as Lupinus albus)”, in test [2], the “Z. tritici IPO323 MIC Day 1” value is more than 12 µM, the “Z. tritici IPO323 MIC Day 7” value was more than 12 µM and the “Z. tritici IPO323 MIC Day 14” value was more than 12 µM. For the same molecule, the “B. cinerea T4 MIC Day1” value in test [3] is more than 12 µM. In addition, the “F. graminearum PH-1 MIC Day1” value in test [4] was more than 12 µM.
“PD117.1.1: Manihot esculenta wild-type defensin SEQ ID NO: 692 with N-terminal alanine, expressed in Pichia pastoris (RICVKPEPLAHCTETICTQFCIRKYGPPPGTVGKCNLPPGFCTCYHNC; N-terminal alanine added; listed as Manihot esculenta)”: in test [2], the “Z. tritici IPO323 MIC Day 1” value is more than 12 µM, the “Z. tritici IPO323 MIC Day 7” value is more than 12 µM and the “Z. tritici IPO323 MIC Day 14” value is more than 12 µM. In addition, the “B. cinerea T4 MIC Day1” value in test [3] is more than 12 µM. The “F. graminearum PH-1 MIC Day1” value in test [4] was more than 12 µM.
Take “PD118.1.1: Malus domestica wild-type defensin SEQ ID NO: 697 with N-terminal alanine, expressed in Pichia pastoris (KICEFPSTLFKGLCFSSNNCKHTCRKEQFTRGKCSLLTRTCMCTKKC; N-terminal alanine added; listed as Malus domestica)”: in test [2], the “Z. tritici IPO323 MIC Day 1” value came out at 1.5 µM, the “Z. tritici IPO323 MIC Day 7” value was determined as 2 µM and the “Z. tritici IPO323 MIC Day 14” value turned out to be 3 µM. In test [3], the “B. cinerea T4 MIC Day1” value amounted to 1.5 µM. For the same molecule, in test [4], the “F. graminearum PH-1 MIC Day1” value came out at 1.5 µM.
Regarding “PD119.1.1: Setaria italica wild-type defensin SEQ ID NO: 702 with N-terminal alanine, expressed in Pichia pastoris (RHCLSQSHTFKGLCFSSENCASVCKSEKFPGGQCQMHGASRKCFCKVVC; N-terminal alanine added; listed as Setaria italica)”, in test [2], the “Z. tritici IPO323 MIC Day 1” value turned out to be 2.5 µM, the “Z. tritici IPO323 MIC Day 7” value was 6 µM and the “Z. tritici IPO323 MIC Day 14” value turned out to be 12 µM. In test [3], the “B. cinerea T4 MIC Day1” value was determined as 4.5 µM. The “F. graminearum PH-1 MIC Day1” value in test [4] is 1.5 µM.
Consider “PD121.1.1: Setaria italica wild-type defensin SEQ ID NO: 711 with N-terminal alanine, expressed in Pichia pastoris (RHCLSQSHHFKGLCLSSSNCANVCRVERFPDGECQTTAGTRKCFCKRIC; N-terminal alanine added; listed as Setaria italica)”, for which, in test [2], the “Z. tritici IPO323 MIC Day 1” value is 1 µM, the “Z. tritici IPO323 MIC Day 7” value was 4 µM and the “Z. tritici IPO323 MIC Day 14” value came to 5 µM. Moreover, the “B. cinerea T4 MIC Day1” value in test [3] was 2 µM. For the same molecule, the “F. graminearum PH-1 MIC Day1” value in test [4] amounted to 1.5 µM.
The corresponding values for “PD123.1.1: Striga asiatica wild-type defensin SEQ ID NO: 719 with N-terminal alanine, expressed in Pichia pastoris (RKCESKSQQFKGLCFIKANCAAVCRTEGFHSGHCRGFRRRCYCTKHC; N-terminal alanine added; listed as Striga asiatica)” are 3 µM, 5 µM, 10 µM, 6 µM and 6 µM.
Taken in the same sequence, the figures for “PD124.1.1: Rubus argutus wild-type defensin SEQ ID NO: 723 with N-terminal alanine, expressed in Pichia pastoris (RICEVPSKTFIGLCFKDTNCIVRCRSEGYGYGKCSHFRRRCRCFKPCP; N-terminal alanine added; listed as Rubus argutus)” were 0.75 µM, 3.25 µM, 4 µM, 0.75 µM and 2 µM.
Taken in the same sequence, the figures for “PD125.1.1: wild-type defensin-like protein SEQ ID NO: 728 with N-terminal alanine, expressed in Pichia pastoris (VICPLESKRSKTWSGVCAQSKNCDKQCKTWERAKHGACHATYGKVLGVKACMHAGNK; N-terminal alanine added; listed as Prunus armeniaca)” were 3 µM, 7 µM, 9 µM, 10 µM and 8 µM.
For the molecule “PD126.1.1: wild-type defensin-like protein SEQ ID NO: 730 with N-terminal alanine, expressed in Pichia pastoris (KLCERRSKTWTGWCAKTSHCNKQCKDWERVEHGACHGEFLEKPVSAISNAHCKISF; N-terminal alanine added; listed as Prunus armeniaca)”, in test [2], the “Z. tritici IPO323 MIC Day 1” value is more than 12 µM, the “Z. tritici IPO323 MIC Day 7” value was more than 12 µM and the “Z. tritici IPO323 MIC Day 14” value was more than 12 µM. Moreover, the “B. cinerea T4 MIC Day1” value in test [3] was more than 12 µM. Besides, the “F. graminearum PH-1 MIC Day1” value in test [4] is more than 12 µM.
Consider “PD128.1.1: wild-type defensin-like protein SEQ ID NO: 734 with N-terminal alanine, expressed in Pichia pastoris (RVCLRRSKTWTGFCGNTRGFDSQCKRWECALHGACHC; N-terminal alanine added; listed as Lepidium sativum)”, for which, in test [2], the “Z. tritici IPO323 MIC Day 1” value is 3 µM, the “Z. tritici IPO323 MIC Day 7” value was determined as 7 µM and the “Z. tritici IPO323 MIC Day 14” value is 8 µM. Further, the “B. cinerea T4 MIC Day1” value in test [3] came to 3 µM. The “F. graminearum PH-1 MIC Day1” value in test [4] was more than 12 µM.

B1: PD97.1.1: Rubus chingii wild-type defensin SEQ ID NO: 608 with N-terminal alanine, expressed in Pichia pastoris (protein, listed as Rubus chingii)
chain: GACPLVSKRSKTWSGFCGSSNNCNKQCRSWESAQHGACHNTYKTVLGVKVISGRACFCYFCKKHT
modifications: N-terminal alanine
On to B1, for which, in test [2], the “MIC against Z. tritici on day 1” value was found to be 0.75 µM, the “MIC against Z. tritici on day 7” value was 1.5 µM, the “MIC against Z. tritici on day 14” value came to 1.5 µM and the “Z. tritici IPO323 MIC Day 1” value was found to be 0.75 µM. In test [2], the “Z. tritici IPO323 MIC Day 7” value amounted to 1.5 µM and the “Z. tritici IPO323 MIC Day 14” value stood at 1.5 µM. The “B. cinerea T4 MIC Day1” value in test [3] stood at 1.25 µM. For the same molecule, the “F. graminearum PH-1 MIC Day1” value in test [4] came out at 1.5 µM.

B2: PD91.1.1: Setaria viridis wild-type defensin SEQ ID NO: 578 with N-terminal alanine, expressed in Pichia pastoris (protein, listed as Setaria viridis)
chain: AYMCTTQNRFFHGRCVNNLNCASSCVHGRLGTGGHCATRKRSAADPGVDIDWVWNRRICVCVFQC
modifications: N-terminal alanine
Take B2: in test [2], the “Z. tritici IPO323 MIC Day 1” value amounted to 6 µM, the “Z. tritici IPO323 MIC Day 7” value is more than 6 µM and the “Z. tritici IPO323 MIC Day 14” value is more than 6 µM. Besides, the “B. cinerea T4 MIC Day1” value in test [3] is more than 12 µM. Also, in test [4], the “F. graminearum PH-1 MIC Day1” value was more than 12 µM.

B3: PD127.1.1: wild-type defensin-like protein SEQ ID NO: 732 with N-terminal alanine, expressed in Pichia pastoris (protein, listed as Potentilla micrantha)
chain: GACPLVQKRSKTWSGFCGSSNNCDKQCRTWEKAKHGACHATGDLKGTPRLKLRSCHARRSKDH
modifications: N-terminal alanine added
For B3, in test [2], the “Z. tritici IPO323 MIC Day 1” value was more than 12 µM, the “Z. tritici IPO323 MIC Day 7” value was more than 12 µM and the “Z. tritici IPO323 MIC Day 14” value is more than 12 µM. Besides, the “B. cinerea T4 MIC Day1” value in test [3] is more than 12 µM. Further, the “F. graminearum PH-1 MIC Day1” value in test [4] was more than 12 µM.
